What was measured:
[1] = Inhibition of GABA-gated chloride channel (unknown origin); set-up: species or system Homo sapiens
[2] = Drug metabolism in guinea pig hepatic microsomes assessed as compound lability by LC-MS/MS method; type: ADME, Cavia porcellus, Microsome; conditions: liver microsomes, read-out: Drug metabolism
[3] = molecular target: Sodium/hydrogen exchanger 1 (Homo sapiens, UniProt P19634); test: Inhibition of human NHE1 expressed in LAP1 cell assessed as intracellular pH recovery measured for 2 mins by CECF-AM dye based FLIPR assay
Sodium/hydrogen exchanger 1, sequence (P19634 whole entry): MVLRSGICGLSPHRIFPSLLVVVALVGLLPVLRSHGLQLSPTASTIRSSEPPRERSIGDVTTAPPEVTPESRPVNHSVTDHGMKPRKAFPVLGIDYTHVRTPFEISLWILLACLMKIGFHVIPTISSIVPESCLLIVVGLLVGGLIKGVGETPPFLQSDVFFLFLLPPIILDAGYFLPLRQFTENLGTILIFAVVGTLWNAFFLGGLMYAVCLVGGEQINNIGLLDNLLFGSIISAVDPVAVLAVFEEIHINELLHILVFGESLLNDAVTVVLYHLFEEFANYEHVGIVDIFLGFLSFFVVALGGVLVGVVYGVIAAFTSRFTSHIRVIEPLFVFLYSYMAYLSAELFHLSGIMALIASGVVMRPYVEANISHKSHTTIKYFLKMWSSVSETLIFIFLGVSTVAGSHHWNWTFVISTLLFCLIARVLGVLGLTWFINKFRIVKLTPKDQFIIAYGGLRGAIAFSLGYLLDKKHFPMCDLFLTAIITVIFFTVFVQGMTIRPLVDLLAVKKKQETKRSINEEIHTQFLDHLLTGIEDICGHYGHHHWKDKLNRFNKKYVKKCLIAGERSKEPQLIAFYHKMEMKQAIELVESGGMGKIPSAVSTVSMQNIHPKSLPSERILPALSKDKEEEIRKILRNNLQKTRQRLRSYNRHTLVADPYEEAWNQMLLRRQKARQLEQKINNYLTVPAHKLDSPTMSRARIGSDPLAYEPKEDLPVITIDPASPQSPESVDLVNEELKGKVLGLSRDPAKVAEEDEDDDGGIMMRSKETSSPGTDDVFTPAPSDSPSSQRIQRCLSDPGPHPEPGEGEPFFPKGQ

[4] = Drug metabolism in human hepatic microsomes assessed as glucuronidation by LC-MS/MS method; type: ADME, Liver, Microsome
[5] = Drug metabolism in rabbit hepatic microsomes assessed as compound lability by LC-MS/MS method; type: ADME, Oryctolagus cuniculus, Microsome; conditions: liver microsomes, read-out: Drug metabolism
[6] = Drug metabolism in monkey hepatic microsomes assessed as glucuronidation by LC-MS/MS method; type: ADME, Macaca mulatta, Liver, Microsome; conditions: rhesus monkey
[7] = Inhibition of PDE4 (unknown origin); set-up: species or system Homo sapiens
[8] = Drug metabolism in hamster hepatic microsomes assessed as compound lability by LC-MS/MS method; type: ADME, Microsome; conditions: cricetinae, liver microsomes; read-out: Drug metabolism
[9] = Clearance in human hepatocytes assessed per million cells at 5 uM by LC-MS/MS method; type: ADME, cell-based, Hepatocyte
[10] = molecular target: T1, Sodium/hydrogen exchanger 2 (Homo sapiens, UniProt Q9UBY0); test: Inhibition of human NHE2 expressed in LAP1 cell assessed as intracellular pH recovery measured for 2 mins by CECF-AM dye based FLIPR assay
T1 sequence (Q9UBY0 whole entry): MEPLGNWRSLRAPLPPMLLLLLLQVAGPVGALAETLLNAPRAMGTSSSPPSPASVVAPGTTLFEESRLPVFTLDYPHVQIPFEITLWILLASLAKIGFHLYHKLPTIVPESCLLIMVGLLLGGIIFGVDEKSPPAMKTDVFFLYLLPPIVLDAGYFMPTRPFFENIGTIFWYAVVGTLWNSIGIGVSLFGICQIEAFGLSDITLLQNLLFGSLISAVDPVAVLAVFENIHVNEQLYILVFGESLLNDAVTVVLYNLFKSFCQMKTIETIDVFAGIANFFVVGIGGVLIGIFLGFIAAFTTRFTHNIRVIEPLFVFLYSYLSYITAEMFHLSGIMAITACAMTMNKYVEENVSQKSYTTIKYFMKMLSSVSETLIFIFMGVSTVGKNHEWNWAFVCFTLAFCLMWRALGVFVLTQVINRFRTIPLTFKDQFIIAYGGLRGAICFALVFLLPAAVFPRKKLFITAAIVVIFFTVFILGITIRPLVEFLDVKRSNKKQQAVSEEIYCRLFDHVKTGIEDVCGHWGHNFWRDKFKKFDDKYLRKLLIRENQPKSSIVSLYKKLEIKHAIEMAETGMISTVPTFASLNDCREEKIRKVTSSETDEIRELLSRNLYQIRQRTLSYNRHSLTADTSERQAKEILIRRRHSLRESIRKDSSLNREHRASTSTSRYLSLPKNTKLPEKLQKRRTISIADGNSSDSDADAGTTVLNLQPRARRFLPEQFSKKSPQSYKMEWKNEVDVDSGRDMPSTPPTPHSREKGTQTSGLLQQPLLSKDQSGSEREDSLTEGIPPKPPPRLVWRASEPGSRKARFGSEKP

[11] = Drug metabolism in guinea pig hepatic microsomes assessed as glucuronidation by LC-MS/MS method; type: ADME, Cavia porcellus, Liver, Microsome
[12] = Drug metabolism in rabbit hepatic microsomes assessed as glucuronidation by LC-MS/MS method; type: ADME, Oryctolagus cuniculus, Liver, Microsome
[13] = Drug metabolism in mouse hepatic microsomes assessed as glucuronidation by LC-MS/MS method; type: ADME, Liver, Microsome
[14] = Drug metabolism in mouse hepatic microsomes assessed as compound lability by LC-MS/MS method; type: ADME, Microsome; conditions: liver microsomes, read-out: Drug metabolism
[15] = Drug metabolism in human hepatic microsomes assessed as compound lability in presence of CYP3A4 inhibitor ketoconazole by LC-MS/MS method; type: ADME, Microsome; conditions: liver microsomes, with ketoconazole (CYP3A4 inhibitor), concentration not stated, read-out: Drug metabolism
[16] = Toxicity in Xenopus laevis at 62.5 ug/ml by FETAX assay
[17] = Drug metabolism in hamster hepatic microsomes assessed as glucuronidation by LC-MS/MS method; type: ADME, Liver, Microsome; conditions: cricetinae
[18] = Drug metabolism in mini pig hepatic microsomes assessed as glucuronidation by LC-MS/MS method; type: ADME, Sus scrofa, Liver, Microsome
[19] = Inhibition of cat NHE3 expressed in LAP1 cell assessed as intracellular pH recovery measured for 2 mins by CECF-AM dye based FLIPR assay; conditions: Felis catus, LAP1, 2 min
[20] = Drug metabolism in macaque hepatic microsomes assessed as compound lability by LC-MS/MS method; type: ADME, Macaca mulatta, Microsome; conditions: rhesus monkey, liver microsomes; read-out: Drug metabolism
[21] = molecular target: T2, Sodium/hydrogen exchanger isoform 3 (Sus scrofa, UniProt Q9XSD0); test: Inhibition of pig NHE3 expressed in LAP1 cell assessed as intracellular pH recovery measured for 2 mins by CECF-AM dye based FLIPR assay
T2 sequence (Q9XSD0 whole entry): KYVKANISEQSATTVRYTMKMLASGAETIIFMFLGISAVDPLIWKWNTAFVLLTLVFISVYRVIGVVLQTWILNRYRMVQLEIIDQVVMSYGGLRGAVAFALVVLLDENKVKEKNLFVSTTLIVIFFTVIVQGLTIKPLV

[22] = Drug metabolism in rat hepatic microsomes assessed as glucuronidation by LC-MS/MS method; type: ADME, Liver, Microsome
[23] = Drug metabolism in human hepatic microsomes assessed as compound lability by LC-MS/MS method; type: ADME, Microsome; conditions: liver microsomes, read-out: Drug metabolism
[24] = Drug metabolism in rat hepatic microsomes assessed as compound lability by LC-MS/MS method; type: ADME, Microsome; conditions: liver microsomes, read-out: Drug metabolism
[25] = Drug metabolism in dog hepatic microsomes assessed as glucuronidation by LC-MS/MS method; type: ADME, Canis lupus familiaris, Liver, Microsome
Cytochrome P450 2C9 = Cytochrome P450 2C9 (Homo sapiens, UniProt P11712); test: Inhibition of CYP2C9 in pooled human hepatic microsomes using diclofenac substrate in presence of NADPH; type: ADME, Liver
Cytochrome P450 2C9, sequence (P11712 whole entry): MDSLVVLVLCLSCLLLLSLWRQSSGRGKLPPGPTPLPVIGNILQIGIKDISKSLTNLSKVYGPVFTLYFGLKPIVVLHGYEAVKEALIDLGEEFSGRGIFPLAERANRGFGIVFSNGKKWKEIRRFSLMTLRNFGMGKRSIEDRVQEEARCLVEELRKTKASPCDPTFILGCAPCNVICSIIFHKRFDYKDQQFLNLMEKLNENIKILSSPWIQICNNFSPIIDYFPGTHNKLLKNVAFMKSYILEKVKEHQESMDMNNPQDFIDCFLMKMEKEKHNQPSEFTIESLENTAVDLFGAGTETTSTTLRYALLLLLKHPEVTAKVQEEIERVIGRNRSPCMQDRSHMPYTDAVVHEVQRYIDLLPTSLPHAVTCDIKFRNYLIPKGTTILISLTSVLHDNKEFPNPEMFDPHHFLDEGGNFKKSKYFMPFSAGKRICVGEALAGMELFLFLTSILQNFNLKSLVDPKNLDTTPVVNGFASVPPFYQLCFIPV

[26] = molecular target: Sodium/hydrogen exchanger 3 (Rattus norvegicus, UniProt P26433); test: Inhibition of rat NHE3 expressed in LAP1 cell assessed as intracellular pH recovery measured for 2 mins by CECF-AM dye based FLIPR assay
Sodium/hydrogen exchanger 3, sequence (P26433 whole entry): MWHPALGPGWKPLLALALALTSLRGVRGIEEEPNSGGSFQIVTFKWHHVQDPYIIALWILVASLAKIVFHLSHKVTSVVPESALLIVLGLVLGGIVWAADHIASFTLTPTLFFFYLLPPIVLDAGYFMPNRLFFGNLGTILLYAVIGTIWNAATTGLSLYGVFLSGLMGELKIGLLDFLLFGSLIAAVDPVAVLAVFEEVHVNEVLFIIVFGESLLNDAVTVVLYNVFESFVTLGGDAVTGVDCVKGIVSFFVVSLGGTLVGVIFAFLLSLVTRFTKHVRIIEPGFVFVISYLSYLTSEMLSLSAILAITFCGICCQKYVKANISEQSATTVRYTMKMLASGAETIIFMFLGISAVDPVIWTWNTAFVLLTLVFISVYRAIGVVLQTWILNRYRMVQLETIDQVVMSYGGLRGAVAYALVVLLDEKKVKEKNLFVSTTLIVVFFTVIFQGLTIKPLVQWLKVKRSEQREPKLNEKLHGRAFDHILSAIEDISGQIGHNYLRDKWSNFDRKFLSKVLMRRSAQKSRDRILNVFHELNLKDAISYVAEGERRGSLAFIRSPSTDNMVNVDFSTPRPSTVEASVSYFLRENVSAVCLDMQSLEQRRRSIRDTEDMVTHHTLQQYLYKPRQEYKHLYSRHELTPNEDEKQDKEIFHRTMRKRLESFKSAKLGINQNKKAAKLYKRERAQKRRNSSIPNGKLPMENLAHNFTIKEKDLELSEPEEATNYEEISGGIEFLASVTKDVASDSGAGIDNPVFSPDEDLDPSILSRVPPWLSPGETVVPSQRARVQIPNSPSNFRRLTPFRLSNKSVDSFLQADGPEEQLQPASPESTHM

Salmonella typhimurium = test: Genotoxicity in Salmonella typhimurium at 300 ug/ml by AMES II test; type: toxicity, organism-based; conditions: salmonella enterica subsp. enterica serovar typhimurium
[27] = Drug metabolism in pig hepatic microsomes assessed as glucuronidation by LC-MS/MS method; type: ADME, Sus scrofa, Liver, Microsome
[28] = Drug metabolism in Landrance pig hepatic microsomes assessed as compound lability by LC-MS/MS method; type: ADME, Sus scrofa, Microsome; conditions: Landrace, liver microsomes, read-out: Drug metabolism
[29] = molecular target: T3, Sodium/hydrogen exchanger 5 (Homo sapiens, UniProt Q14940); test: Inhibition of human NHE5 expressed in LAP1 cell assessed as intracellular pH recovery measured for 2 mins by CECF-AM dye based FLIPR assay
T3 sequence (Q14940 whole entry): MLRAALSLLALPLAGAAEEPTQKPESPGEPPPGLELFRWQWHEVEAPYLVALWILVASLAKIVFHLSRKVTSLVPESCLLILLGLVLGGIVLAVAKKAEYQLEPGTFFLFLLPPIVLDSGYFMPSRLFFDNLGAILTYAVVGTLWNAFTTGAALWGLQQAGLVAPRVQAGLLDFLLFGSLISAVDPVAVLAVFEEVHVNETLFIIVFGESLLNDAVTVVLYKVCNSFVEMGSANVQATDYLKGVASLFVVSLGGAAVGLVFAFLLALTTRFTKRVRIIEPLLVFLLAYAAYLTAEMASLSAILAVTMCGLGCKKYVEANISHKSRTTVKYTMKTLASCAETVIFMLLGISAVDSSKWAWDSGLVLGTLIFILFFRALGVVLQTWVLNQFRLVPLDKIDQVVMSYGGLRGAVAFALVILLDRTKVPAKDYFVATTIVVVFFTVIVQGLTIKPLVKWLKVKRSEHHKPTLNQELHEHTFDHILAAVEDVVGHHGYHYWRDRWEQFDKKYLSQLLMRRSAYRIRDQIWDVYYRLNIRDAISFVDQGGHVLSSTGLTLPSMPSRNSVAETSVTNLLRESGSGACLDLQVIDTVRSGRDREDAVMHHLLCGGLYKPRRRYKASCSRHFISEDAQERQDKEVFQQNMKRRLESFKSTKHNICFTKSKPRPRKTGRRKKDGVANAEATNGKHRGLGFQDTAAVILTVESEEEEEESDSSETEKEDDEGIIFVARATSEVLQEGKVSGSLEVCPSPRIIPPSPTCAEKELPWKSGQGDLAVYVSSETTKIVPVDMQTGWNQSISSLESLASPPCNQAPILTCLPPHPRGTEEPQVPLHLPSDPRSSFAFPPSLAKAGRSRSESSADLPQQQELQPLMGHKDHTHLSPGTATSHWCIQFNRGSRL

With `Cc1nnc(C)n1-c1ccc(O[C@H]2c3cc(Cl)cc(Cl)c3C[C@@H]2N2CC[C@@H](O)C2)c(F)c1.Cl` the IC50 [1] was 12 µM, the metabolised [2] was 25% and the IC50 [3] was > 100 µM. For the same molecule, the Drug metabolism [4] was “Metabolite_Notdetected”, the metabolised [5] was 25% and the Drug metabolism [6] was “Metabolite_Detected”. The IC50 [7] was 6.6 µM, the metabolised [8] was > 60% and the CLH [9] was 0.12 mL/h. The IC50 [10] was > 100 µM, the Drug metabolism [11] was “Metabolite_Notdetected” and the Drug metabolism [12] was “Metabolite_Notdetected”. For the same molecule, the Drug metabolism [13] was “Metabolite_Notdetected”, the metabolised [14] was 25% and the metabolised [15] was 5%. The Activity [16] was “Non-Toxic”, the Drug metabolism [17] was “Metabolite_Notdetected” and the Drug metabolism [18] was “Metabolite_Detected”. The IC50 [19] was 0.0061 µM, the metabolised [20] was > 60% and the IC50 [21] was 0.0078 µM. For the same molecule, the Drug metabolism [22] was “Metabolite_Notdetected”, the metabolised [23] was 25% and the metabolised [24] was 25%. For the same molecule, the Drug metabolism [25] was “Metabolite_Notdetected”, the IC50 (Cytochrome P450 2C9) was 0.9 µM and the IC50 [26] was 0.0102 µM. For the same molecule, the Activity (Salmonella typhimurium) was “Non-Toxic”, the Drug metabolism [27] was “Metabolite_Detected” and the metabolised [28] was 25%. It also gave an IC50 [29] of 0.291 µM.

Source: ChEMBL document CHEMBL3860060, “Discovery and Optimization of 1-Phenoxy-2-aminoindanes as Potent, Selective, and Orally Bioavailable Inhibitors of the Na+/H+ Exchanger Type 3 (NHE3)” (J Med Chem, 2016)
